Experimental data taken from the NIST ThermoML archive (doi:10.1021/je7001418).

Experiment: cn = amount concentration of the nth substance listed, in mol/dm3
Details: 298.15 K, 101.3 kPa, Liquid; for viscosity: Capillary tube (Ostwald / Ubbelohde) method; for mass density: Pycnometric method

C[N+](C)(C)C.[I-] [tetramethylammonium iodide] + O
Details	mass density [kg/m3]	viscosity [mPa·s]
c1 = 0.05	1001	0.805
c1 = 0.1	1003	0.812
c1 = 0.15	1009	0.819
